Measurements: patent publication US12121746B2, “Energy augmentation structures, energy emitters or energy collectors containing the same, and their use in methods and systems for treating cell proliferation disorders” (priority 2019, dated 2024)
Like-named read-outs stand apart in the source and are kept apart here.

Tests used:
[1] = in vivo; cited from earlier work
[2] = test system: CT2A (murine malignant glioma); test: UV light activated psoralen, Cell-Titer-Glo Luminescence Cell Viability Assay; format: cell-based; settings: psoralen 40 ρM; UV light 0, 0.25, 0.5, 1.0 J/cm^2; N=4; FIG. 51A
Method: (§1) Metabolic cell viability was also assessed visually using Methylene blue staining and ATP-induced Luminescence imaging (Cell-Titer-Glo® Luminescence Cell Viability Assay). The luminescence imaging permitted investigation of the cytotoxicity of psoralen activated directly with a UV lamp, and in the absence of phosphors and x-ray radiation. […] The psoralen concentration was 40 ρM.

4T1 = test: as above; format: cell-based, murine; settings: psoralen 40 ρM; UV light 0, 0.25, 0.5, 1.0 J/cm^2; N=4; FIG. 51A
Method: as §1

KP158B (sarcoma) = test: as above; format: cell-based, murine; settings: psoralen 40 ρM; UV light 0, 0.25, 0.5, 1.0 J/cm^2; N=4; FIG. 51A
Method: as §1

4T1-HER2 cells = settings: multi-variable regression on 36 independent irradiation experiments; irradiated
Method: In-vitro X-PACT studies were conducted on cells prepared in the following manner. Cells were incubated in appropriate growing media and buffers before being trypsinized and plated evenly onto twelve (12) well plates for 24 hours. […] The plates were then irradiated with x-rays by placing the plate at a known distance from the x-ray source (e.g., 50 cm). After irradiation the cells were incubated on the plate for 48 hours prior to performing flow cytometry. For compatibility with 96-well Guava Nexin® assay, the remaining cells were again trypsinized (after the 48 hour incubation) and plated onto a 96-well plate. The phosphors used in this evaluation were designated as NP 200 and GTP 4300. […]
Cells plated in 12-well plates, where individual wells in each plate may receive different experimental conditions (e.g. psoralen concentration), but the same x-ray dose (i.e. all wells in a given plate receive the same x-ray dose). The first metric is metabolically viable cell count (or cell viability) determined from the number of whole cells per well as determined using forward scattering (FSC). […] (All wells on a given plate receive the same dose.) The second metric is Annexin V (+) signal, which is the fraction of the metabolically viable cells which expressed a positive Annexin V signal as determined by flow cell cytometry, and include any cells advancing toward early or late apoptotic cell death. […]

[3] = test system: syngeneic 4T1-HER2 tumors; test: In-vivo X-PACT trial on syngeneic tumors; set-up: species or system BALB/c mice; settings: treatment arms with x-ray; 5 μM psoralen (AMT), 100 μg of phosphor; FIG. 54
Method: There were 4 arms of the trial: […] […] There were 6-8 mice per arm, and the study was repeated a second time, yielding effective sample sizes of 12-16. […] A consistent x-ray irradiation technique was used for all arms (except saline control) which was 2 Gy delivered at 75 kVp by 30 mA in 3 minutes.

[4] = cited from earlier work

Q: With Vitamin B12 as the compound, how does the route of excretion [1] read?
A: excreted by glomerular filtration

Q: With `O=c1ccc2cc3ccoc3cc2o1` [psoralen] as the compound, how does the viable cells [2] read?
A: reduce viable cells

Q: What about the viable cells (4T1) of the same compound?
A: reduce viable cells

Q: What about the viable cells (KP158B (sarcoma)) of the same compound?
A: reduce viable cells

Q: And the “cytotoxicity (Annexin V signal)” value (4T1-HER2 cells)?
A: neither psoralen nor phosphor alone had a strong effect

Q: What about the “tumor growth effect” value [3] of the same compound?
A: slightly higher component effect

Q: What does the source list for `Oc1cccc(-c2c3nc(c(-c4cccc(O)c4)c4ccc([nH]4)c(-c4cccc(O)c4)c4nc(c(-c5cccc(O)c5)c5ccc2[nH]5)CC4)C=C3)c1` [Foscan, Tetra (m-hydroxyphenyl) chlorin]?
A: Length of photosensitization ([4]; Table 3): 2 weeks; duration of skin photosensitivity [4]: approximately 2 weeks

Q: With `CC(=O)[O-].CC(=O)[O-].CCc1c(CC)c2cc3nc(cnc4cc(OCCOCCOCCOC)c(OCCOCCOCCOC)cc4ncc4nc(cc1[n-]2)C(CCCO)=C4C)C(C)=C3CCCO.O.[Lu+3]` [Lutetium texahyrin, Motexafin lutetium] as the compound, how does the Length of photosensitization ([4]; in vivo) read?
A: 24 to 48 h

Q: What about the “duration of skin photosensitivity” value ([4]; in vivo) of the same compound?
A: 24 to 48 h
